Assay results: ChEMBL document CHEMBL3763027, “Identification and characterization of potent, selective and metabolically stable IKKβ inhibitor” (Bioorg Med Chem Lett, 2016)
Calls of active or inactive are those of the source. The rule behind the calls is not given here.

Assays:
[1] = target: T1, Inhibitor of nuclear factor kappa-B kinase subunit beta (Homo sapiens) (UniProt O14920); experiment: Inhibition of IKKbeta (unknown origin) at 10 uM by TR-FRET assay
T1 sequence (whole entry): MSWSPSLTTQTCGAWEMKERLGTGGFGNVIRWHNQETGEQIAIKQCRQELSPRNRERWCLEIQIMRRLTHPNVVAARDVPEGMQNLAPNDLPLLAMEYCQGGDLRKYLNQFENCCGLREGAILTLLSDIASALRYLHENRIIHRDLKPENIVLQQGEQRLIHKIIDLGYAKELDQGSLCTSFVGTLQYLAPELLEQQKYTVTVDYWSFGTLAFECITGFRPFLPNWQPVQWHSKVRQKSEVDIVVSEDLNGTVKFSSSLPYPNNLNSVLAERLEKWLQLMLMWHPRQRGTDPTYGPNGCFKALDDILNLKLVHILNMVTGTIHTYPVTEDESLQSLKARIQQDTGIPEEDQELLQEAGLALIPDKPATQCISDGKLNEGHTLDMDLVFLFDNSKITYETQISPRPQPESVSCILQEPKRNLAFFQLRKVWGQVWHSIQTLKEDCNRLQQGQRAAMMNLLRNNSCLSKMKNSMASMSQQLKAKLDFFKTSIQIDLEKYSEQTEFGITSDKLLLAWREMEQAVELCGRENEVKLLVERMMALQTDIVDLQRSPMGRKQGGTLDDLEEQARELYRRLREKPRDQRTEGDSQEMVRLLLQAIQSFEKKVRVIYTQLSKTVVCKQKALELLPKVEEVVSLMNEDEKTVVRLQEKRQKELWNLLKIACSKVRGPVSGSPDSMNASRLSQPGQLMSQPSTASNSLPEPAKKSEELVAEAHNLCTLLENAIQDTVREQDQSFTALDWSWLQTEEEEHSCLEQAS

[2] = target: T1, Inhibitor of nuclear factor kappa-B kinase subunit beta (Homo sapiens); experiment: Inhibition of IKKbeta (unknown origin) transfected in human HeLa cells assessed as inhibition of TPA-induced NF-kappaB activation at 10 uM pre-incubated with compound for 1 hr followed by TPA addition after 8 hrs by luciferase reporter gene assay; type: cell-based
[3] = Half life in human microsomes; type: ADME, Microsome
[4] = target: Tyrosine-protein kinase ABL1 (Homo sapiens) (UniProt P00519); experiment: Inhibition of Abl1 (unknown origin) at 10 uM
Sequence of Tyrosine-protein kinase ABL1 (Homo sapiens) (P00519 whole entry): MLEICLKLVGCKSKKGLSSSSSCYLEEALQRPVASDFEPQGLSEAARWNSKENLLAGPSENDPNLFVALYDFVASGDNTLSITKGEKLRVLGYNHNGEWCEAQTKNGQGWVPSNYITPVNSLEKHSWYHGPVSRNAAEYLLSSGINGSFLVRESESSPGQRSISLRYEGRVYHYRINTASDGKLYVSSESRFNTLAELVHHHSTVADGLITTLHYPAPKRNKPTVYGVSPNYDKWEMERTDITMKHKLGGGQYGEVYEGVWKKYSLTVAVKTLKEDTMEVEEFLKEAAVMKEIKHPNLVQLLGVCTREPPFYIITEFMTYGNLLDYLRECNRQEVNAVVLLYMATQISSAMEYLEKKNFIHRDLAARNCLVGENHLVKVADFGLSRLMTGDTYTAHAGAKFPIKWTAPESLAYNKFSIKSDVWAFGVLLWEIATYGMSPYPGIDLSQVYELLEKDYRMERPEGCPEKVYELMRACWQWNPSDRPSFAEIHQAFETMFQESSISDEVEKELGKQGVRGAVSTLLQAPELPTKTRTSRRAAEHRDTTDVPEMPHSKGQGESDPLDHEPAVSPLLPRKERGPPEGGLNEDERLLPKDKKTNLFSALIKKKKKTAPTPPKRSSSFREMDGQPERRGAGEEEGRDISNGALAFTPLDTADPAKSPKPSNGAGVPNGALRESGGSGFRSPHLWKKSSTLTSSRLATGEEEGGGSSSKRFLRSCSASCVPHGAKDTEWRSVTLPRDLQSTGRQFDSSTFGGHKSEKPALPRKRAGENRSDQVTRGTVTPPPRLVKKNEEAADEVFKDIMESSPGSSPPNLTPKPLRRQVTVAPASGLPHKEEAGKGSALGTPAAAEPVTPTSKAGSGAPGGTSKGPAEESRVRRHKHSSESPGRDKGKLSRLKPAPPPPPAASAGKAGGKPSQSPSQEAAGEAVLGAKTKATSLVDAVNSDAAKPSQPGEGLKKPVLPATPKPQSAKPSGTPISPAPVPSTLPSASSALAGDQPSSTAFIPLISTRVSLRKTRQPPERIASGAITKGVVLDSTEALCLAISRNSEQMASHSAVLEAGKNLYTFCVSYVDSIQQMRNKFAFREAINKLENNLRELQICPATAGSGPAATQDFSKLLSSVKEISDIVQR

[5] = target: Serine/threonine-protein kinase B-raf (Homo sapiens) (UniProt P15056); experiment: Inhibition of BRAF (unknown origin) at 10 uM
Sequence of Serine/threonine-protein kinase B-raf (Homo sapiens) (P15056 whole entry): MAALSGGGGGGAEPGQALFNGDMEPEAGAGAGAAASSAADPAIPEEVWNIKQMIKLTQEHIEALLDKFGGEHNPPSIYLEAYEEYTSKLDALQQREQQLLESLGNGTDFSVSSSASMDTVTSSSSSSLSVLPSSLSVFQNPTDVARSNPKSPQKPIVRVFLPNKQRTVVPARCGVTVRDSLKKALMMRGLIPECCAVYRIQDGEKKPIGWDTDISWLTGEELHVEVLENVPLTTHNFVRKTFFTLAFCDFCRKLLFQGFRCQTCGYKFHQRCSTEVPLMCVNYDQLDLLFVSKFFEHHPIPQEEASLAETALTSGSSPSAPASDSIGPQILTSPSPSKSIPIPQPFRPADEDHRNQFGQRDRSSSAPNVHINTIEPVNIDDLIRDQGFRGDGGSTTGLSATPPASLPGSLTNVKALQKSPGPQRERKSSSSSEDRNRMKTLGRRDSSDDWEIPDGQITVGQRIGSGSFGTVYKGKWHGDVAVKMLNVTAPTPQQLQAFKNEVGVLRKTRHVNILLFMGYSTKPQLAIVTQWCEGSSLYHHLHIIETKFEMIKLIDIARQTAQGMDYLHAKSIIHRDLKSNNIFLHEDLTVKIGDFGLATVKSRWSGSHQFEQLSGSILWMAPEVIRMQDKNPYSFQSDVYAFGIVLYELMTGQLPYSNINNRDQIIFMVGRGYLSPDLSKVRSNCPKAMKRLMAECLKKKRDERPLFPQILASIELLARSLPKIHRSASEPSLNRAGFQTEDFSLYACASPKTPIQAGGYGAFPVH

[6] = target: CDK2/Cyclin A2 (Homo sapiens) (UniProt P24941+P20248); experiment: Inhibition of CDK2/cyclin A (unknown origin) at 10 uM; type: protein-complex assay
[7] = target: Cyclin-dependent kinase 4/cyclin D1 (Homo sapiens) (UniProt P11802+P24385); experiment: Inhibition of CDK4/cyclin D1 (unknown origin) at 10 uM; type: protein-complex assay
[8] = target: Cyclin-dependent kinase 7/ cyclin H (Homo sapiens) (UniProt P51946+P50613); experiment: Inhibition of CDK7/cyclin H (unknown origin) at 10 uM; type: protein-complex assay
[9] = target: Serine/threonine-protein kinase Chk2 (Homo sapiens) (UniProt O96017); experiment: Inhibition of CHK2 (unknown origin) at 10 uM
Sequence of Serine/threonine-protein kinase Chk2 (Homo sapiens) (O96017 whole entry): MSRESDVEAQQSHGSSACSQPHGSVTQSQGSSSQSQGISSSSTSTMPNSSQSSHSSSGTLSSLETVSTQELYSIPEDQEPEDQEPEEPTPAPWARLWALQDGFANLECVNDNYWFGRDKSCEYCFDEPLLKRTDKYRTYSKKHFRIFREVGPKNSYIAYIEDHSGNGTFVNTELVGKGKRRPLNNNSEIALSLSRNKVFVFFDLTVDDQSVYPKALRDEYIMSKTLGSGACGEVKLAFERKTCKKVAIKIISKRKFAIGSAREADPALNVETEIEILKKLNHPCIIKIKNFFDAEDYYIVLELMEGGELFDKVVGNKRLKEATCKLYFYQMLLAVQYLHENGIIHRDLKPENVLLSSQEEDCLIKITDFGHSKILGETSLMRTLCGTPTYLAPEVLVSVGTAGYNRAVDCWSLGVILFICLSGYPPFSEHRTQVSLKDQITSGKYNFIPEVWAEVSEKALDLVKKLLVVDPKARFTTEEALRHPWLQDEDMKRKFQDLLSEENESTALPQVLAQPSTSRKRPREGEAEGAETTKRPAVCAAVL

[10] = target: Epidermal growth factor receptor (Homo sapiens) (UniProt P00533); experiment: Inhibition of EGFR (unknown origin) at 10 uM
Sequence of Epidermal growth factor receptor (Homo sapiens) (P00533 whole entry): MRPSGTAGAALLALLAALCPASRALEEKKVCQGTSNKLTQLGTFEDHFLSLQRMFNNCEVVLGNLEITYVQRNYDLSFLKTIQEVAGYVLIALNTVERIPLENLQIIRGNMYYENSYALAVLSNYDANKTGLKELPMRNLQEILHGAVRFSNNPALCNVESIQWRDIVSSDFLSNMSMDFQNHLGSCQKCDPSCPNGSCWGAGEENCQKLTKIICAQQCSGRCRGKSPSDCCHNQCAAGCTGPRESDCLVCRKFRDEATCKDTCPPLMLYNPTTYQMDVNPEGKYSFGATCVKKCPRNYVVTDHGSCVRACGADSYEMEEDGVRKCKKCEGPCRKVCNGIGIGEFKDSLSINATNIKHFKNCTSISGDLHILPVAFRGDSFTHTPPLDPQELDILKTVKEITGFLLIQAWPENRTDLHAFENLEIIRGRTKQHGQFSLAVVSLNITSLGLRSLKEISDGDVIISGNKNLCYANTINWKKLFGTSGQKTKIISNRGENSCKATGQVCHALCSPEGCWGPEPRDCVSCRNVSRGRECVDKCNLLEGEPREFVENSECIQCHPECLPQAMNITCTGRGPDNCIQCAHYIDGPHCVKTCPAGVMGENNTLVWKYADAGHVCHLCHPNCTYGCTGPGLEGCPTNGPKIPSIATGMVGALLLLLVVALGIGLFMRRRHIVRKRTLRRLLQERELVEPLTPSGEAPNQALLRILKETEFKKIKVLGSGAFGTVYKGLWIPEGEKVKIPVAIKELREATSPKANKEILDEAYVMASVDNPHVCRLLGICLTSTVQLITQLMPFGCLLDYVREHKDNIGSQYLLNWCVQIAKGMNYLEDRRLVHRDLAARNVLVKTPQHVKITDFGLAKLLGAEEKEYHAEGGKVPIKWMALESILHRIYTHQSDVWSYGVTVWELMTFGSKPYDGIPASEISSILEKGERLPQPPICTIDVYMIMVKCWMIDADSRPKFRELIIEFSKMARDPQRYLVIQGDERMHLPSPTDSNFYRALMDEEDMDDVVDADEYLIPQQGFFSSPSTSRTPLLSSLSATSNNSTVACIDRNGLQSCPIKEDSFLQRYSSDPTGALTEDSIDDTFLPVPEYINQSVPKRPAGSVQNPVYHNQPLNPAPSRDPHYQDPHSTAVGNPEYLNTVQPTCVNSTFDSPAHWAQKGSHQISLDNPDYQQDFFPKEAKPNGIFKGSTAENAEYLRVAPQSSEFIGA

[11] = target: Inhibitor of nuclear factor kappa-B kinase subunit alpha (Homo sapiens) (UniProt O15111); experiment: Inhibition of IKKalpha (unknown origin) at 10 uM
[12] = target: Mitogen-activated protein kinase 9 (Homo sapiens) (UniProt P45984); experiment: Inhibition of JNK2 (unknown origin) at 10 uM
[13] = target: Mitogen-activated protein kinase 10 (Homo sapiens) (UniProt P53779); experiment: Inhibition of JNK3 (unknown origin) at 10 uM
Sequence of Mitogen-activated protein kinase 10 (Homo sapiens) (P53779 whole entry): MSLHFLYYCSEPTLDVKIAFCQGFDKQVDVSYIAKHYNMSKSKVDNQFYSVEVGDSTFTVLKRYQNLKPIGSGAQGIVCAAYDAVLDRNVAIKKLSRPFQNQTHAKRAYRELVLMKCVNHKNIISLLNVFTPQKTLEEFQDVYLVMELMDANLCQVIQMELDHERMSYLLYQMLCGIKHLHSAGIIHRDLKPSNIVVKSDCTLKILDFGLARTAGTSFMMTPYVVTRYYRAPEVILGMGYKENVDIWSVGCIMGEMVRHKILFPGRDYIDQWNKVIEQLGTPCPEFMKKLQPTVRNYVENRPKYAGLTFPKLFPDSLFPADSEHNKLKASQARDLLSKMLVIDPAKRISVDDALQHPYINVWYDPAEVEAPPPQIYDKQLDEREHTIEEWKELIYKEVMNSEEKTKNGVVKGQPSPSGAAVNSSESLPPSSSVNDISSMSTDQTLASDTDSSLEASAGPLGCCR

[14] = target: MAP kinase-interacting serine/threonine-protein kinase 1 (Homo sapiens) (UniProt Q9BUB5); experiment: Inhibition of MNK1 (unknown origin) at 10 uM
[15] = target: MAP kinase-interacting serine/threonine-protein kinase 2 (Homo sapiens) (UniProt Q9HBH9); experiment: Inhibition of MNK2 (unknown origin) at 10 uM
Sequence of MAP kinase-interacting serine/threonine-protein kinase 2 (Homo sapiens) (Q9HBH9 whole entry, looked up): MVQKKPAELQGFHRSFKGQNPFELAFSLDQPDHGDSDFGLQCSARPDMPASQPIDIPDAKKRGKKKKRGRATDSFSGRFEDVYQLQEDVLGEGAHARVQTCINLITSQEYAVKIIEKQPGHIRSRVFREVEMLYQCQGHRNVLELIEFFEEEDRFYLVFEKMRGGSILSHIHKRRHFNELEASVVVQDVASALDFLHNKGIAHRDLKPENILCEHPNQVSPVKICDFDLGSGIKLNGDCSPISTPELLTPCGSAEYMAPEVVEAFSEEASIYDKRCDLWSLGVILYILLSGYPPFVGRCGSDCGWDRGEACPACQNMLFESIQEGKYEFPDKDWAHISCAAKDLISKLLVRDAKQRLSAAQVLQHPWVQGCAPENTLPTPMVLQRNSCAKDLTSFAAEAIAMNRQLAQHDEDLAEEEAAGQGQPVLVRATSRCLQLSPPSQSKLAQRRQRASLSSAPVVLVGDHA

[16] = target: Mitogen-activated protein kinase 14 (Homo sapiens) (UniProt Q16539); experiment: Inhibition of MAPK14 (unknown origin) at 10 uM
[17] = target: Serine/threonine-protein kinase pim-1 (Homo sapiens) (UniProt P11309); experiment: Inhibition of PIM1 (unknown origin) at 10 uM
Sequence of Serine/threonine-protein kinase pim-1 (Homo sapiens) (P11309 whole entry, looked up): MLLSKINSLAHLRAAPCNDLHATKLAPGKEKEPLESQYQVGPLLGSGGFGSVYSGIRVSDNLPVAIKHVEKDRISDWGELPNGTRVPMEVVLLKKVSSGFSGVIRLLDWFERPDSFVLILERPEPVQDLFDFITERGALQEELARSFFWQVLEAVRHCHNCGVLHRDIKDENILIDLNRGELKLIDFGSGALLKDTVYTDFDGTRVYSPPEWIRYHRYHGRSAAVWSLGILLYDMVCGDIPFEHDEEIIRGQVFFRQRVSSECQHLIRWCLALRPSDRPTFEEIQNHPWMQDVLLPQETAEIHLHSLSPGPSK

[18] = target: Rho-associated protein kinase 1 (Homo sapiens) (UniProt Q13464); experiment: Inhibition of ROCK1 (unknown origin) at 10 uM
[19] = target: Serine/threonine-protein kinase TBK1 (Homo sapiens) (UniProt Q9UHD2); experiment: Inhibition of TBK1 (unknown origin) at 10 uM
[20] = target: Angiopoietin-1 receptor (Homo sapiens) (UniProt Q02763); experiment: Inhibition of TIE2 (unknown origin) at 10 uM
[21] = target: T1, Inhibitor of nuclear factor kappa-B kinase subunit beta (Homo sapiens); experiment: Non-competitive inhibition of IKKbeta (unknown origin) using FAM-IkBalpha derived peptide as substrate at 0.5 to 1 uM incubated for 1 hr measured after 15 hrs by Lineweaver-Burk plot method in the presence of 0.625 to 10 uM ATP
[22] = tested on: Mus musculus; experiment: Toxicity in female ICR mouse assessed as average body weight at 2000 mg/kg, po administered on day 1 measured 3 hrs post dose (reference value: 18.9 +/- 0.9 g); type: organism-based; conditions: in vivo
[23] = tested on: Mus musculus; experiment: Toxicity in female ICR mouse assessed as average body weight at 2000 mg/kg, po administered for 3 days measured 3 hrs post last dose (reference value: 18.9 +/- 0.9 g); type: organism-based; conditions: in vivo
[24] = tested on: Mus musculus; experiment: Toxicity in female ICR mouse assessed as average body weight at 2000 mg/kg, po administered for 14 days measured 3 hrs post last dose (reference value: 18.9 +/- 0.9 g); type: organism-based; conditions: in vivo
[25] = tested on: Mus musculus; experiment: Toxicity in male ICR mouse assessed as average body weight at 2000 mg/kg, po administered for 2 days measured 3 hrs post last dose (reference value: 20.3 +/- 0.4 g); type: organism-based; conditions: in vivo
[26] = tested on: Mus musculus; experiment: Toxicity in male ICR mouse assessed as average body weight at 2000 mg/kg, po administered for 14 days measured 3 hrs post last dose (reference value: 20.3 +/- 0.4 g); type: organism-based; conditions: in vivo
[27] = Half life in Sprague-Dawley rat at 1 mg/kg, iv after 0.25 to 24 hrs; type: ADME, organism-based; conditions: in vivo
[28] = Clearance in Sprague-Dawley rat at 1 mg/kg, iv after 0.25 to 24 hrs; type: ADME, organism-based; conditions: in vivo
[29] = Volume of distribution in Sprague-Dawley rat at 1 mg/kg, iv after 0.25 to 24 hrs; type: ADME, organism-based; conditions: in vivo
[30] = tested on: Rattus norvegicus; experiment: AUC (0 to infinity) in Sprague-Dawley rat at 2 mg/kg, po after 0.25 to 24 hrs; type: ADME, organism-based; set-up: dose 2 mg/kg, time infinity, route oral; conditions: in vivo
[31] = Half life in Sprague-Dawley rat at 2 mg/kg, po after 0.25 to 24 hrs; type: ADME, organism-based; conditions: in vivo
[32] = tested on: Rattus norvegicus; experiment: Volume of distribution in Sprague-Dawley rat at 2 mg/kg, po after 0.25 to 24 hrs; type: ADME, organism-based; conditions: in vivo

With CN1CCN(CCCOc2ccc(N3C(=O)/C(=C/c4ccc(Oc5ccc(F)cc5)cc4)SC3=S)cc2)CC1 the inhibition [1] was 93.3%, the inhibition [2] was 84.8% and the half-life [3] was 3.98 h. The inhibition [4] was 20%, the inhibition [5] was 0% and the inhibition [6] was 6.4%. It also gave an inhibition [7] of 17.3%, an inhibition [8] of 2.5% and an inhibition [9] of 47%. It also gave an inhibition [10] of 0%, an inhibition [11] of 0% and an inhibition [12] of 0%. It also gave an inhibition [13] of 0%, an inhibition [14] of 0% and an inhibition [15] of 33.1%. It also gave an inhibition [16] of 14.8%, an inhibition [17] of 0% and an inhibition [18] of 61.1%. The inhibition [19] was 0%, the inhibition [20] was 57.5% and the inhibition [21] was “Active”. It also gave an Activity [22] of 19.7 g, an Activity [23] of 23.3 g and an Activity [24] of 35.1 g. The Activity [25] was 22.1 g, the Activity [26] was 29.2 g and the half-life [27] was 5.5 h. For the same compound, the clearance [28] was 98 mL/min/kg, the Vd [29] was 44.3 L/kg and the AUC [30] was 79.4 ng·h/mL. The half-life [31] was 5.81 h and the Vd [32] was 50.58 L/kg.
